Assay results taken from patent publication US20210267204A1, “MICROBIOCIDAL OXADIAZOLE DERIVATIVES” (SYNGENTA CROP PROTECTION AG, priority 2018, published 2021).

Key:
Phakopsora pachyrhizi = experiment: Fungicidal activity against Phakopsora pachyrhizi / soybean / leaf disc preventative (Asian soybean rust); assay type: in vivo; details: foliar, 200 ppm in the applied formulation, soybean leaf disks, inoculated one day after application, assessed 12 to 14 days after application, compared to untreated, read-out: disease control
Description: Leaf disks or leaf segments of various plant species are cut from plants grown in a greenhouse. The cut leaf disks or segments are placed in multiwell plates (24-well format) onto water agar. The leaf disks are sprayed with a test solution before (preventative) or after (curative) inoculation. Compounds to be tested are prepared as DMSO solutions (max. 10 mg/mL) which are diluted to the appropriate concentration with 0.025% Tween20 just before spraying. The inoculated leaf disks or segments are incubated under defined conditions (temperature, relative humidity, light, etc.) according to the respective test system. A single evaluation of disease level is carried out 3 to 14 days after inoculation, depending on the pathosystem. Percent disease control relative to the untreated check leaf disks or segments is then calculated. Soybean leaf disks are placed on water agar in multiwell plates (24-well format) and sprayed with the formulated test compound diluted in water. One day after application leaf discs are inoculated by spraying a spore suspension on the lower leaf surface. After an incubation period in a climate cabinet of 24-36 hours in darkness at 20° C. and 75% rh leaf disc are kept at 20° C. with 12 hours light/day and 75% rh. The activity of a compound is assessed as percent disease control compared to untreated when an appropriate level of disease damage appears in untreated check leaf disks (12 to 14 days after application). The following compounds at 200 ppm in the applied formulation give at least 80% disease control in this test when compared to untreated control leaf disks under the same conditions, which show extensive disease development.

[1] = test system: Glomerella lagenarium (Colletotrichum lagenarium); experiment: Fungicidal activity against Glomerella lagenarium (Colletotrichum lagenarium) liquid culture / cucumber / preventative (anthracnose); assay type: cell-based; details: Colletotrichum orbiculare; 20 ppm in the applied formulation; liquid culture in PDB, 24° C.; 3 to 4 days after application; compared to untreated control; read-out: disease control (inhibition of growth measured photometrically)
Description: Mycelia fragments or conidia suspensions of a fungus prepared either freshly from liquid cultures of the fungus or from cryogenic storage, are directly mixed into nutrient broth. DMSO solutions of the test compound (max. 10 mg/mL) are diluted with 0.025% Tween20 by a factor of 50 and 10 μL of this solution is pipetted into a microtiter plate (96-well format). The nutrient broth containing the fungal spores/mycelia fragments is then added to give an end concentration of the tested compound. The test plates are incubated in the dark at 24° C. and 96% relative humidity (rh). The inhibition of fungal growth is determined photometrically after 2 to 7 days, depending on the pathosystem, and percent antifungal activity relative to the untreated check is calculated. Conidia of the fungus from cryogenic storage are directly mixed into nutrient broth (PDB—potato dextrose broth). After placing a (DMSO) solution of test compound into a microtiter plate (96-well format), the nutrient broth containing the fungal spores is added. The test plates are incubated at 24° C. and the inhibition of growth is measured photometrically 3 to 4 days after application. The following compounds at 20 ppm in the applied formulation give at least 80% disease control in this test when compared to untreated control under the same conditions, which show extensive disease development.

[2] = test system: Puccinia recondita f. sp. tritici; experiment: Fungicidal activity against Puccinia recondita f. sp. tritici / wheat / leaf disc curative (brown rust); assay type: in vivo; details: foliar, 200 ppm in the applied formulation, wheat leaf segments cv. Kanzler, applied 1 day after inoculation, assessed 6 to 8 days after application, compared to untreated, read-out: disease control
Description: Leaf disks or leaf segments of various plant species are cut from plants grown in a greenhouse. The cut leaf disks or segments are placed in multiwell plates (24-well format) onto water agar. The leaf disks are sprayed with a test solution before (preventative) or after (curative) inoculation. Compounds to be tested are prepared as DMSO solutions (max. 10 mg/mL) which are diluted to the appropriate concentration with 0.025% Tween20 just before spraying. The inoculated leaf disks or segments are incubated under defined conditions (temperature, relative humidity, light, etc.) according to the respective test system. A single evaluation of disease level is carried out 3 to 14 days after inoculation, depending on the pathosystem. Percent disease control relative to the untreated check leaf disks or segments is then calculated. Wheat leaf segments cv. Kanzler are placed on agar in multiwell plates (24-well format). The leaf segments are then inoculated with a spore suspension of the fungus. Plates were stored in darkness at 19° C. and 75% relative humidity. The formulated test compound diluted in water was applied 1 day after inoculation. The leaf segments were incubated at 19° C. and 75% relative humidity under a light regime of 12 hours light/12 hours darkness in a climate cabinet and the activity of a compound was assessed as percent disease control compared to untreated when an appropriate level of disease damage appears in untreated check leaf segments (6 to 8 days after application). The following compounds at 200 ppm in the applied formulation give at least 80% disease control in this test when compared to untreated control leaf disks under the same conditions, which show extensive disease development.

[3] = test system: Puccinia recondita f. sp. tritici; experiment: Fungicidal activity against Puccinia recondita f. sp. tritici / wheat / leaf disc preventative (brown rust); assay type: in vivo; details: foliar, 200 ppm in the applied formulation, wheat leaf segments cv. Kanzler, inoculated 1 day after application, assessed 7 to 9 days after application, compared to untreated, read-out: disease control
Description: Leaf disks or leaf segments of various plant species are cut from plants grown in a greenhouse. The cut leaf disks or segments are placed in multiwell plates (24-well format) onto water agar. The leaf disks are sprayed with a test solution before (preventative) or after (curative) inoculation. Compounds to be tested are prepared as DMSO solutions (max. 10 mg/mL) which are diluted to the appropriate concentration with 0.025% Tween20 just before spraying. The inoculated leaf disks or segments are incubated under defined conditions (temperature, relative humidity, light, etc.) according to the respective test system. A single evaluation of disease level is carried out 3 to 14 days after inoculation, depending on the pathosystem. Percent disease control relative to the untreated check leaf disks or segments is then calculated. Wheat leaf segments cv. Kanzler were placed on agar in multiwell plates (24-well format) and sprayed with the formulated test compound diluted in water. The leaf disks were inoculated with a spore suspension of the fungus 1 day after application. The inoculated leaf segments were incubated at 19° C. and 75% relative humidity (rh) under a light regime of 12 hours light/12 hours darkness in a climate cabinet and the activity of a compound was assessed as percent disease control compared to untreated when an appropriate level of disease damage appears in untreated check leaf segments (7 to 9 days after application). The following compounds at 200 ppm in the applied formulation give at least 80% disease control in this test when compared to untreated control leaf disks under the same conditions, which show extensive disease development.

COCC(=S)NCc1cnn(Cc2ccc(-c3noc(C(F)(F)F)n3)s2)c1 [Compound 1.14, 2-methoxy-N-[[1-[[5-[5-(trifluoromethyl)-1,2,4-oxadiazol-3-yl]-2-thienyl]methyl]pyrazol-4-yl]methyl]thioacetamide]
pest or weed control at 200 ppm (Phakopsora pachyrhizi): ≥ 80% | inhibition at 20 ppm [1]: ≥ 80% | pest or weed control at 200 ppm [2]: ≥ 80% | pest or weed control at 200 ppm [3]: ≥ 80% | melting point: 135.5 to 140.3 °C
